Structures can show the parent of a compound that is named as a salt.
Columns and labels:
MASP-2 (CCP1-CCP2-SP) = target: T1, MASP-2 (CCP1-CCP2-SP) (Homo sapiens, UniProt O00187); assay: Enzymatic assay for MASP-2 inhibitory activity (fluorogenic substrate); type: biochemical
T1 construct: 15 μL of Enzyme MASP-2 (CCP1-CCP2-SP) in Assay Buffer
Outline: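 MASP-2 (CCP1-CCP2-SP) cleaved a fluorogenic substrate based on the C2 cleavage site in 20 mM HEPES pH 7.4, 140 mM NaCl, 0.1% Tween 20 at room temperature. After 20 min the reaction was stopped with 0.1 M acetic acid and fluorescence read. % activity was normalized to DMSO-only and no-enzyme controls; IC50 taken as Ki.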

human α-thrombin = target: T2, human α-thrombin (Homo sapiens, UniProt P00734); assay: Enzymatic assay for thrombin (fluorogenic peptide substrate Boc-VPR-AMC); type: biochemical
T2 construct: enzyme (human α-thrombin (BioPharm® Lab.)) in assay buffer; purchased BioPharm® Lab
Outline: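 Human α-thrombin was run with the fluorogenic substrate Boc-VPR-AMC in 20 mM Hepes pH 7.4, 140 mM NaCl, 0.1% Tween 20 at room temperature for 20 min, then stopped with 0.1 M acetic acid. % activity was normalized to DMSO and no-enzyme controls. Under linear conditions IC50 equalled Ki, except for tight-binding inhibitors.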

T1 sequence (O00187 445-686 limits assumed): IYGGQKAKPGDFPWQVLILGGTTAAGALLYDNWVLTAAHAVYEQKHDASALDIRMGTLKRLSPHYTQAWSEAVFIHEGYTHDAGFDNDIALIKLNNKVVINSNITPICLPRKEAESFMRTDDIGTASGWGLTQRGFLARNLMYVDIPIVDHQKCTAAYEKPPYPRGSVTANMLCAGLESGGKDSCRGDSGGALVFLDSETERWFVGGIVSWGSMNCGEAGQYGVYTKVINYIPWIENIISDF
T1 sequence (O00187 287-444 partner limits assumed): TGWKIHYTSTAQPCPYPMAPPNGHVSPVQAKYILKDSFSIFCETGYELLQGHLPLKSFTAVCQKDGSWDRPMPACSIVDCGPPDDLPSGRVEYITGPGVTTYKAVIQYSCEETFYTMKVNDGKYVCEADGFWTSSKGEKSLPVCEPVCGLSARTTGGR

Ki (MASP-2 (CCP1-CCP2-SP)) | Ki (human α-thrombin) | SMILES
< 0.5 µM | 0.5 to 2.5 µM | Cc1nc(N)ccc1CNC(=O)[C@@H]1CCc2cnc(NCC3CCOCC3)c(=O)n21 [Compound 116, (S)—N-((6-amino-2-methylpyridin-3-yl)methyl)-4-oxo-3-(((tetrahydro-2H-pyran-4-yl)methyl)amino)-4,6,7,8-tetrahydropyrrolo[1,2-a]pyrazine-6-carboxamide]
< 0.5 µM | 2.5 to 10 µM | O=C(NCc1cc2cnccc2[nH]1)[C@@H]1CCc2cnc(NCc3cccc(C(F)(F)F)c3)c(=O)n21 [Compound 117, (S)-N-((1H-pyrrolo[3,2-c]pyridin-2-yl)methyl)-4-oxo-3-((3-(trifluoromethyl)benzyl)amino)-4,6,7,8-tetrahydropyrrolo[1,2-a]pyrazine-6-carboxamide trifluoroacetate]
< 0.5 µM | 10 to 25 µM | Cc1nc(N)ccc1CNC(=O)[C@@H]1CCc2c(Cl)nc(NCC3CCOC3)c(=O)n21 (stereo partly drawn) [Compound 118, (6S)—N-((6-amino-2-methylpyridin-3-yl)methyl)-1-chloro-4-oxo-3-(((tetrahydrofuran-3-yl)methyl)amino)-4,6,7,8-tetrahydropyrrolo[1,2-a]pyrazine-6-carboxamide]
2.5 to 10 µM | > 25 µM | O=C(NCc1cc2c(s1)CNC2)[C@@H]1CCc2cnc(N3CC(c4ccccc4)C3)c(=O)n21 [Compound 119, (S)—N-((5,6-dihydro-4H-thieno[2,3-c]pyrrol-2-yl)methyl)-4-oxo-3-(3-phenylazetidin-1-yl)-4,6,7,8-tetrahydropyrrolo[1,2-a]pyrazine-6-carboxamide]
< 0.5 µM | 10 to 25 µM | N#Cc1nc(NCc2ccccc2)c(=O)n2c1CC[C@H]2C(=O)NCc1cc2cnccc2[nH]1 [Compound 121, (S)—N-((1H-pyrrolo[3,2-c]pyridin-2-yl)methyl)-3-(benzylamino)-1-cyano-4-oxo-4,6,7,8-tetrahydropyrrolo[1,2-a]pyrazine-6-carboxamide trifluoroacetate]
< 0.5 µM | < 0.5 µM | Cc1cc(C)cc(CNc2ncc3n(c2=O)[C@H](C(=O)NCc2ccc(N)nc2C)CC32CC2)c1 [Compound 122, (S)—N-((6-amino-2-methylpyridin-3-yl)methyl)-3′-((3,5-dimethylbenzyl)amino)-4′-oxo-6′,7′-dihydro-4′H-spiro[cyclopropane-1,8′-pyrrolo[1,2-a]pyrazine]-6′-carboxamide trifluoroacetate]
< 0.5 µM | 0.5 to 2.5 µM | Cc1cc(C)cc(CNc2ncc3n(c2=O)[C@H](C(=O)NCc2cc4cnccc4[nH]2)CC32CC2)c1 [Compound 123, (S)-N-((1H-pyrrolo[3,2-c]pyridin-2-yl)methyl)-3′-((3,5-dimethylbenzyl)amino)-4′-oxo-6′,7′-dihydro-4′H-spiro[cyclopropane-1,8′-pyrrolo[1,2-a]pyrazine]-6′-carboxamide trifluoroacetate]
< 0.5 µM | > 25 µM | Cc1cc(C)cc(CNc2ncc3n(c2=O)[C@H](C(=O)NCc2cc4cnc(C)cc4[nH]2)CC32CC2)c1 [Compound 124, (S)-3′-((3,5-dimethylbenzyl)amino)-N-((6-methyl-1H-pyrrolo[3,2-c]pyridin-2-yl)methyl)-4′-oxo-6′,7′-dihydro-4′H-spiro[cyclopropane-1,8′-pyrrolo[1,2-a]pyrazine]-6′-carboxamide trifluoroacetate]
< 0.5 µM | 2.5 to 10 µM | O=C(NCc1cc2cnccc2[nH]1)[C@@H]1CC2(CC2)c2cnc(NCc3ccccc3)c(=O)n21 [Compound 125, (S)-N-((1H-pyrrolo[3,2-c]pyridin-2-yl)methyl)-3′-(benzylamino)-4′-oxo-6′,7′-dihydro-4′H-spiro[cyclopropane-1,8′-pyrrolo[1,2-a]pyrazine]-6′-carboxamide]
< 0.5 µM | 0.5 to 2.5 µM | Cc1cc(C)cc(CNc2ncc3n(c2=O)[C@H](C(=O)NCc2cc4c(s2)CNC4)CC32CC2)c1 [Compound 126, (S)—N-((5,6-dihydro-4H-thieno[2,3-c]pyrrol-2-yl)methyl)-3′-((3,5-dimethylbenzyl)amino)-4′-oxo-6′,7′-dihydro-4′H-spiro[cyclopropane-1,8′-pyrrolo[1,2-a]pyrazine]-6′-carboxamide]
< 0.5 µM | 2.5 to 10 µM | O=C(NCc1cc2c(s1)CNC2)[C@@H]1CC2(CC2)c2cnc(NCc3ccccc3)c(=O)n21 [Compound 127, (S)-3′-(benzylamino)-N-((5,6-dihydro-4H-thieno[2,3-c]pyrrol-2-yl)methyl)-4′-oxo-6′,7′-dihydro-4′H-spiro[cyclopropane-1,8′-pyrrolo[1,2-a]pyrazine]-6′-carboxamide trifluoroacetate]
< 0.5 µM | 2.5 to 10 µM | O=C(NCc1cc2cnccc2[nH]1)[C@@H]1CC2(CC2)c2c(Cl)nc(NCc3ccccc3)c(=O)n21 [Compound 128, (S)—N-((1H-pyrrolo[3,2-c]pyridin-2-yl)methyl)-3′-(benzylamino)-1′-chloro-4′-oxo-6′,7′-dihydro-4′H-spiro[cyclopropane-1,8′-pyrrolo[1,2-a]pyrazine]-6′-carboxamide]
< 0.5 µM | 10 to 25 µM | CC[C@H]1C[C@@H](C(=O)NCc2cc3cnc(C)cc3[nH]2)n2c1cnc(NCc1cc(C)cc(C)c1)c2=O [Compound 129, (6S,8S)-3-((3,5-dimethylbenzyl)amino)-8-ethyl-N-((6-methyl-1H-pyrrolo[3,2-c]pyridin-2-yl)methyl)-4-oxo-4,6,7,8-tetrahydropyrrolo[1,2-a]pyrazine-6-carboxamide]
< 0.5 µM | > 25 µM | C[C@H]1C[C@@H](C(=O)NCc2cc3cnccc3[nH]2)n2c1c(Cl)nc(NCc1ccccc1)c2=O [Compound 130, (6S,8S)—N-((1H-pyrrolo[3,2-c]pyridin-2-yl)methyl)-3-(benzylamino)-1-chloro-8-methyl-4-oxo-4,6,7,8-tetrahydropyrrolo[1,2-a]pyrazine-6-carboxamide]
< 0.5 µM | > 25 µM | Cc1cc(C)cc(CNc2nc(Cl)c3n(c2=O)[C@H](C(=O)NCc2cc4cnccc4[nH]2)C[C@@H]3C)c1 [Compound 132, (6S,8S)-N-((1H-pyrrolo[3,2-c]pyridin-2-yl)methyl)-1-chloro-3-((3,5-dimethylbenzyl)amino)-8-methyl-4-oxo-4,6,7,8-tetrahydropyrrolo[1,2-a]pyrazine-6-carboxamide]
< 0.5 µM | 2.5 to 10 µM | O=C(NCc1cc2cnccc2[nH]1)[C@@H]1CCc2c(Cl)nc(NCc3cccc(C4CC4)c3)c(=O)n21 [Compound 133, (S)-N-((1H-pyrrolo[3,2-c]pyridin-2-yl)methyl)-1-chloro-3-((3-cyclopropylbenzyl)amino)-4-oxo-4,6,7,8-tetrahydropyrrolo[1,2-a]pyrazine-6-carboxamide]
< 0.5 µM | 0.5 to 2.5 µM | CC[C@H]1C[C@@H](C(=O)NCc2ccc(N)nc2C)n2c1c(Cl)nc(NCc1ccccc1)c2=O [Compound 134, (6S,8S)-N-((6-amino-2-methylpyridin-3-yl)methyl)-3-(benzylamino)-1-chloro-8-ethyl-4-oxo-4,6,7,8-tetrahydropyrrolo[1,2-a]pyrazine-6-carboxamide]
< 0.5 µM | 2.5 to 10 µM | Cc1nc(N)ccc1CNC(=O)[C@H]1CCc2c(Cl)nc(NCc3ccccc3)c(=O)n21 [Compound 135, (R)-N-((6-amino-2-methylpyridin-3-yl)methyl)-3-(benzylamino)-1-chloro-4-oxo-4,6,7,8-tetrahydropyrrolo[1,2-a]pyrazine-6-carboxamide]
< 0.5 µM | 0.5 to 2.5 µM | Cc1nc(N)ccc1CNC(=O)[C@@H]1CCc2c(Cl)nc(NCc3cccnc3)c(=O)n21 [Compound 136, (S)-N-((6-amino-2-methylpyridin-3-yl)methyl)-1-chloro-4-oxo-3-((pyridin-3-ylmethyl)amino)-4,6,7,8-tetrahydropyrrolo[1,2-a]pyrazine-6-carboxamide]
< 0.5 µM | > 25 µM | COc1cc(C)cc(CNc2ncc3n(c2=O)[C@H](C(=O)NCc2cc4cnc(C)cc4[nH]2)C[C@@H]3Cc2ccccc2)c1 [Compound 137, (6S,8S)-8-benzyl-3-((3-methoxy-5-methylbenzyl)amino)-N-((6-methyl-1H-pyrrolo[3,2-c]pyridin-2-yl)methyl)-4-oxo-4,6,7,8-tetrahydropyrrolo[1,2-a]pyrazine-6-carboxamide]
< 0.5 µM | < 0.5 µM | COc1cc(C)cc(CNc2ncc3n(c2=O)[C@H](C(=O)NCc2ccc(N)nc2C)C[C@@H]3Cc2ccccc2)c1 [Compound 138, (6S,8S)-N-((6-amino-2-methylpyridin-3-yl)methyl)-8-benzyl-3-((3-methoxy-5-methylbenzyl)amino)-4-oxo-4,6,7,8-tetrahydropyrrolo[1,2-a]pyrazine-6-carboxamide]
< 0.5 µM | 10 to 25 µM | Cc1cc2[nH]c(CNC(=O)[C@@H]3C[C@H](Cc4ccccc4)c4cnc(NC5CCC5)c(=O)n43)cc2cn1 [Compound 139, (6S,8S)-8-benzyl-3-(cyclobutylamino)-N-((6-methyl-1H-pyrrolo[3,2-c]pyridin-2-yl)methyl)-4-oxo-4,6,7,8-tetrahydropyrrolo[1,2-a]pyrazine-6-carboxamide]
< 0.5 µM | 0.5 to 2.5 µM | COc1cc(C)cc(CNc2ncc3n(c2=O)[C@H](C(=O)NCc2cc4cnccc4[nH]2)C[C@@H]3Cc2ccccc2)c1 [Compound 141, (6S,8S)-N-((1H-pyrrolo[3,2-c]pyridin-2-yl)methyl)-8-benzyl-3-((3-methoxy-5-methylbenzyl)amino)-4-oxo-4,6,7,8-tetrahydropyrrolo[1,2-a]pyrazine-6-carboxamide]
